# Assay results published in ChEMBL document CHEMBL4145608, “Dehydrodiconiferyl Alcohol Inhibits Osteoclast Differentiation and Ovariectomy-Induced Bone Loss through Acting as an Estrogen Receptor Agonist” (J Nat Prod, 2018).
# pIC50: −log10 of the molar value. Active and inactive are the calls of the source. The calls are words filed in the database; no cut-off is given here.
# How the values were obtained:
# [1] = system: RAW264.7; assay: Inhibition of RANKL-induced bone resorption in mouse RAW264.7 cells assessed as reduction in pit formation after 7 days by optical microscopy; type: functional, cell-based
# [2] = system: RAW264.7; assay: Inhibition of NF-kappaB/p38 MAPK signaling pathway in mouse RAW264.7 cells assessed as reduction in RANKL-induced TRAP mRNA level after 24 hrs by qRT-PCR method; type: cell-based
# [3] = system: RAW264.7; assay: Inhibition of RANKL-induced osteoclast differentiation in mouse RAW264.7 cells assessed as decrease in number of TRAP-positive multinucleated cells at 20 uM after 5 days in presence of ERbeta antagonist PHTPP by microscopy; type: functional, cell-based
# [4] = system: RAW264.7; assay: Inhibition of RANKL-induced osteoclast differentiation in mouse RAW264.7 cells harboring AMPKalpha1 siRNA assessed as decrease in size of TRAP-positive multinucleated cells after 5 days by microscopy; type: functional, cell-based
# [5] = system: RAW264.7; assay: Inhibition of RANKL-induced osteoclast differentiation in mouse RAW264.7 cells assessed as decrease in TRAP activity at 10 to 40 uM after 5 days by microscopy; type: functional, cell-based
# [6] = system: RAW264.7; assay: Inhibition of RANKL-induced osteoclast differentiation in mouse RAW264.7 cells assessed as decrease in TRAP activity at 20 uM after 5 days in presence of ERalpha antagonist MPP by microscopy; type: functional, cell-based
# [7] = target: Estrogen receptor beta (Homo sapiens, UniProt Q92731); assay: Inhibition of fluoromone binding to recombinant human full length untagged ERbeta expressed in insect cells after 2 hrs by fluorescence polarization assay
# [8] = system: RAW264.7; assay: Inhibition of RANKL-induced osteoclast differentiation in mouse RAW264.7 cells assessed as decrease in TRAP mRNA level at 20 uM after 24 hrs in presence of ERalpha antagonist MPP by qRT-PCR method; type: functional, cell-based
# [9] = system: Mus musculus; assay: Anti-osteoporotic activity in Balb/c mouse assessed as decrease in OVX-induced trabecular pattern factor in femur at 25 to 100 mg/kg, ip administered for 4 weeks daily by microcomputed tomography; type: functional, organism-based
# [10] = system: Mus musculus; assay: Anti-osteoporotic activity in ip dosed OVX-induced bone loss in femur of Balb/c mouse administered for 4 weeks daily by microcomputed tomography; type: functional, organism-based
# [11] = system: RAW264.7; assay: Inhibition of RANKL-induced osteoclast differentiation in mouse RAW264.7 cells harboring ERbeta siRNA assessed as decrease in TRAP mRNA level at 20 uM after 24 hrs by qRT-PCR method; type: functional, cell-based
# [12] = system: RAW264.7; assay: Inhibition of RANKL-induced osteoclast differentiation in mouse RAW264.7 cells harboring AMPKalpha1 siRNA assessed as decrease in c-Fos mRNA level at 20 uM after 24 hrs by qRT-PCR method; type: functional, cell-based
# [13] = system: RAW264.7; assay: Inhibition of RANKL-induced osteoclast differentiation in mouse RAW264.7 cells assessed as decrease in size of TRAP-positive multinucleated cells after 5 days by microscopy; type: functional, cell-based
# [14] = system: Mus musculus; assay: Anti-osteoporotic activity in Balb/c mouse assessed as inhibition of OVX-induced serum CTx level at 25 to 100 mg/kg, ip administered for 4 weeks daily by ELISA; type: functional, organism-based
# [15] = system: RAW264.7; assay: Inhibition of RANKL-induced osteoclast differentiation in mouse RAW264.7 cells harboring ERalpha siRNA assessed as decrease in c-Fos mRNA level at 20 uM after 24 hrs by qRT-PCR method; type: functional, cell-based
# [16] = system: RAW264.7; assay: Inhibition of RANKL-induced osteoclast differentiation in mouse RAW264.7 cells assessed as decrease in NFATc1 mRNA level at 20 uM after 24 hrs in presence of ERalpha antagonist MPP by qRT-PCR method; type: functional, cell-based
# [17] = system: RAW264.7; assay: Inhibition of RANKL-induced osteoclast differentiation in mouse RAW264.7 cells harboring ERbeta siRNA assessed as decrease in c-Fos mRNA level at 20 uM after 24 hrs by qRT-PCR method; type: functional, cell-based
# [18] = system: Mus musculus; assay: Anti-osteoporotic activity in Balb/c mouse assessed as inhibition of OVX-mediated decrease in bone marrow density in femur at 25 to 100 mg/kg, ip administered for 4 weeks daily by microcomputed tomography; type: functional, organism-based
# [19] = system: RAW264.7; assay: Inhibition of RANKL-induced osteoclast differentiation in mouse RAW264.7 cells harboring ERbeta siRNA assessed as decrease in NFATc1 mRNA level at 20 uM after 24 hrs by qRT-PCR method; type: functional, cell-based
# [20] = system: RAW264.7; assay: Inhibition of RANKL-induced osteoclast differentiation in mouse RAW264.7 cells assessed as decrease in NFATc1 mRNA level at 20 uM after 24 hrs in presence of ERbeta antagonist PHTPP by qRT-PCR method; type: functional, cell-based
# [21] = system: RAW264.7; assay: Cytotoxicity against mouse RANKL-treated RAW264.7 cells assessed as reduction in cell viability at 10 to 40 uM after 72 hrs by MTT assay; type: cell-based; details: raw264.7, 72 h
# [22] = system: Mus musculus; assay: Anti-osteoporotic activity in Balb/c mouse assessed as inhibition of OVX-induced serum NTx level at 25 to 100 mg/kg, ip administered for 4 weeks daily by ELISA; type: functional, organism-based
# [23] = system: Mus musculus; assay: Anti-osteoporotic activity in Balb/c mouse assessed as inhibition of OVX-mediated decrease in trabecular number in femur at 25 to 100 mg/kg, ip administered for 4 weeks daily by microcomputed tomography; type: functional, organism-based
# [24] = system: RAW264.7; assay: Inhibition of RANKL-induced osteoclast differentiation in mouse RAW264.7 cells harboring ERbeta siRNA assessed as decrease in TRAP activity at 20 uM after 5 days by microscopy; type: functional, cell-based
# [25] = target: MAP kinase p38 (Mus musculus) (UniProt P47811+O08911+Q9WUI1+Q9Z1B7); assay: Inhibition of p38 MAPK signaling pathway in mouse RAW264.7 cells assessed as reduction in RANKL-induced JNK phosphorylation at 10 to 40 uM after 30 mins by Western blot method; type: cell-based
# [26] = system: Mus musculus; assay: Anti-osteoporotic activity in Balb/c mouse assessed as decrease in OVX-induced trabecular spacing in femur at 25 to 100 mg/kg, ip administered for 4 weeks daily by microcomputed tomography; type: functional, organism-based
# [27] = system: RAW264.7; assay: Inhibition of RANKL-induced osteoclast differentiation in mouse RAW264.7 cells harboring ERalpha siRNA assessed as decrease in NFATc1 mRNA level at 20 uM after 24 hrs by qRT-PCR method; type: functional, cell-based
# [28] = system: RAW264.7; assay: Inhibition of NF-kappaB signaling pathway in mouse RAW264.7 cells assessed as reduction in RANKL-induced IkappaB phosphorylation at 10 to 40 uM after 30 mins by Western blot method; type: cell-based
# [29] = system: RAW264.7; assay: Inhibition of NF-kappaB/p38 MAPK signaling pathway in mouse RAW264.7 cells assessed as reduction in RANKL-induced c-Fos protein expression level after 24 hrs by Western blot method; type: cell-based
# [30] = system: Mus musculus; assay: Anti-osteoporotic activity in Balb/c mouse assessed as decrease in OVX-induced structure model index in femur at 25 to 100 mg/kg, ip administered for 4 weeks daily by microcomputed tomography; type: functional, organism-based
# [31] = system: Mus musculus; assay: Anti-osteoporotic activity in Balb/c mouse assessed as inhibition of OVX-induced c-Fos mRNA expression level in bone marrow at 25 to 100 mg/kg, ip administered for 4 weeks daily by qRT-PCR method; type: functional, organism-based
# Estrogen receptor beta, sequence (Q92731 whole entry): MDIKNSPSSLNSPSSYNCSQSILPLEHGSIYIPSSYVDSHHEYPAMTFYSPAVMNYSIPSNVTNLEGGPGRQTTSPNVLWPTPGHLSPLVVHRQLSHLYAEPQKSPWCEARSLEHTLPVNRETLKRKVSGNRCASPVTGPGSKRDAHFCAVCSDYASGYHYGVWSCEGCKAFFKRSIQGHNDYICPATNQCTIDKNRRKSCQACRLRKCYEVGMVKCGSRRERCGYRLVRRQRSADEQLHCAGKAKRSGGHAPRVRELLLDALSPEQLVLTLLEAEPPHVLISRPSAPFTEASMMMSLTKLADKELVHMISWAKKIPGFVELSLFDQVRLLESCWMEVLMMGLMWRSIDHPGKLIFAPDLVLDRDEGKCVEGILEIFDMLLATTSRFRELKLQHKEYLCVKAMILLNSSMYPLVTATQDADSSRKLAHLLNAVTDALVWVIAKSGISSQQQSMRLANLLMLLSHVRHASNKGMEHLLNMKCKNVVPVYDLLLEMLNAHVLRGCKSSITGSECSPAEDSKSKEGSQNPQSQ
smiles,measurement,setting,value
COc1cc(C2Oc3c(OC)cc(/C=C/CO)cc3C2CO)ccc1O (stereo unspecified),inhibition,[1],Dose-dependent effect
same,inhibition,[2],Dose-dependent effect
same,inhibition,[3],Active
same,inhibition,[4],inactive
same,inhibition,[5],Active
same,inhibition,[6],inactive
same,pIC50,[7],6.54
same,inhibition,[8],inactive
same,Activity,[9],Active
same,Activity,[10],Dose-dependent effect
same,inhibition,[11],Active
same,inhibition,[12],inactive
same,inhibition,[13],Dose-dependent effect
same,inhibition,[14],Active
same,inhibition,[15],inactive
same,inhibition,[16],inactive
same,inhibition,[17],Active
same,inhibition,[18],Active
same,inhibition,[19],Active
same,inhibition,[20],Active
same,Activity,[21],Non-Toxic
same,inhibition,[22],Active
same,inhibition,[23],Active
same,inhibition,[24],Active
same,inhibition,[25],inactive
same,Activity,[26],Active
same,inhibition,[27],inactive
same,inhibition,[28],Active
same,inhibition,[29],Dose-dependent effect
same,Activity,[30],Active
same,inhibition,[31],Active
